In ChEMBL document CHEMBL5584246, “Novel dihydropyrimidines as promising EGFR & HER2 inhibitors: Insights from experimental and computational studies” (Eur J Med Chem, 2024):

Tests used:
MCF7 = test: Cytotoxicity against human MCF7 cells assessed as inhibition of cell growth measured after 3 days by MTT assay; format: functional, cell-based; settings: MCF7, 72 h
[1] = Cytotoxicity against African green monkey Vero cells assessed as inhibition of cell growth measured after 3 days by MTT assay; format: toxicity, cell-based; settings: African green monkey (Chlorocebus sabaeus)
[2] = Inhibition of EGFR expression in human MCF7 cells assessed as positive expression region (M2) at 100 nM incubated for 24 hrs by flow cytometry analysis (reference value: 99.36%); format: functional
[3] = Inhibition of HER2 expression in human MCF7 cells assessed as negative expression region (M1) at 100 nM incubated for 24 hrs by flow cytometry analysis (reference value: 0.98%); format: functional
[4] = Inhibition of HER2 expression in human MCF7 cells assessed as positive expression region (M2) at 100 nM incubated for 24 hrs by flow cytometry analysis (reference value: 99.09%); format: functional
[5] = Inhibition of EGFR expression in human MCF7 cells assessed as negative expression region (M1) at 100 nM incubated for 24 hrs by flow cytometry analysis (reference value: 0.66%); format: functional
[6] = Inhibition of HER2 expression in human MCF7 cells assessed as positive expression region (M2) at 1000 nM incubated for 24 hrs by flow cytometry analysis (reference value: 99.09%); format: functional
[7] = Inhibition of EGFR expression in human MCF7 cells assessed as positive expression region (M2) at 1000 nM incubated for 24 hrs by flow cytometry analysis (reference value: 99.36%); format: functional
[8] = Inhibition of EGFR expression in human MCF7 cells assessed as negative expression region (M1) at 25 nM incubated for 24 hrs by flow cytometry analysis (reference value: 0.66%); format: functional
[9] = Inhibition of HER2 expression in human MCF7 cells assessed as positive expression region (M2) at 50 nM incubated for 24 hrs by flow cytometry analysis (reference value: 99.09%); format: functional
[10] = Inhibition of HER2 expression in human MCF7 cells assessed as positive expression region (M2) at 500 nM incubated for 24 hrs by flow cytometry analysis (reference value: 99.09%); format: functional
[11] = target: Epidermal growth factor receptor (Homo sapiens, UniProt P00533); test: Inhibition of wild type EGFR (unknown origin) incubated for 40 mins in presence of ATP by kinase glo max assay
[12] = Inhibition of EGFR expression in human MCF7 cells assessed as positive expression region (M2) at 50 nM incubated for 24 hrs by flow cytometry analysis (reference value: 99.36%); format: functional
[13] = Inhibition of HER2 expression in human MCF7 cells assessed as negative expression region (M1) at 25 nM incubated for 24 hrs by flow cytometry analysis (reference value: 0.98%); format: functional
[14] = Inhibition of EGFR expression in human MCF7 cells assessed as positive expression region (M2) at 25 nM incubated for 24 hrs by flow cytometry analysis (reference value: 99.36%); format: functional
[15] = Inhibition of EGFR expression in human MCF7 cells assessed as negative expression region (M1) at 50 nM incubated for 24 hrs by flow cytometry analysis (reference value: 0.66%); format: functional
[16] = Inhibition of EGFR expression in human MCF7 cells assessed as negative expression region (M1) at 500 nM incubated for 24 hrs by flow cytometry analysis (reference value: 0.66%); format: functional
[17] = Inhibition of EGFR expression in human MCF7 cells assessed as negative expression region (M1) at 1000 nM incubated for 24 hrs by flow cytometry analysis (reference value: 0.66%); format: functional
[18] = Inhibition of HER2 expression in human MCF7 cells assessed as negative expression region (M1) at 500 nM incubated for 24 hrs by flow cytometry analysis (reference value: 0.98%); format: functional
[19] = Inhibition of EGFR expression in human MCF7 cells assessed as positive expression region (M2) at 500 nM incubated for 24 hrs by flow cytometry analysis (reference value: 99.36%); format: functional
[20] = Inhibition of HER2 expression in human MCF7 cells assessed as positive expression region (M2) at 25 nM incubated for 24 hrs by flow cytometry analysis (reference value: 99.09%); format: functional
[21] = Inhibition of HER2 expression in human MCF7 cells assessed as negative expression region (M1) at 1000 nM incubated for 24 hrs by flow cytometry analysis (reference value: 0.98%); format: functional
[22] = Inhibition of HER2 expression in human MCF7 cells assessed as negative expression region (M1) at 50 nM incubated for 24 hrs by flow cytometry analysis (reference value: 0.98%); format: functional

Epidermal growth factor receptor, sequence (P00533 whole entry): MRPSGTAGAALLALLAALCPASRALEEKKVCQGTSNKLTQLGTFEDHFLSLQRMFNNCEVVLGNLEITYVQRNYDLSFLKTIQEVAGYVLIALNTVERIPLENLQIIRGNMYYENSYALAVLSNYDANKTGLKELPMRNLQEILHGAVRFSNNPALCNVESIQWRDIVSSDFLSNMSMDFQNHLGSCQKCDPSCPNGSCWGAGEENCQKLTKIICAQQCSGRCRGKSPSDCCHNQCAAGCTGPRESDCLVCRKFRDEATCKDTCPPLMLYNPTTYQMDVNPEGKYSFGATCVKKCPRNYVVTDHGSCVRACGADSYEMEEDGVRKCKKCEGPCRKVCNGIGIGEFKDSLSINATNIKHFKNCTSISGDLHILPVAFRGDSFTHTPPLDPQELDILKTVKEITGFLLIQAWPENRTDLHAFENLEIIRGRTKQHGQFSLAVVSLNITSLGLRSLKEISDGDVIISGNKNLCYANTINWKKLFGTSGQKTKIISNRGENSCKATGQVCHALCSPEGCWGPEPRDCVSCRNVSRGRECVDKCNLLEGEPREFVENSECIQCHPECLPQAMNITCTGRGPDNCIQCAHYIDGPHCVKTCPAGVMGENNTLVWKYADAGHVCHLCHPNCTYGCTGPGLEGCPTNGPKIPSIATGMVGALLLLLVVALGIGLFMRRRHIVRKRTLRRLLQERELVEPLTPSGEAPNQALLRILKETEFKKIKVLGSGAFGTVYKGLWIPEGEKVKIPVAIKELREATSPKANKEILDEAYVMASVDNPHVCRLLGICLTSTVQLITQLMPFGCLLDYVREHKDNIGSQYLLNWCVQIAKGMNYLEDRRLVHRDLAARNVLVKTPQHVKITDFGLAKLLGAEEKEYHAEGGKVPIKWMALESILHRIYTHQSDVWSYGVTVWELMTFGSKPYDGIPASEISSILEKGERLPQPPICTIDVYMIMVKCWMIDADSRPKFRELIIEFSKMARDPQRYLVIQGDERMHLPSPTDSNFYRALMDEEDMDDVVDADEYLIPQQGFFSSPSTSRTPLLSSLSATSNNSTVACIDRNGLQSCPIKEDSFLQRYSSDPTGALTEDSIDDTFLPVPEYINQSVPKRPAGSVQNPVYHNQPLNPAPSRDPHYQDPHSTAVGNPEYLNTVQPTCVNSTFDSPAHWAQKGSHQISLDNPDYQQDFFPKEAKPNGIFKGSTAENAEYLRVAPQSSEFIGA

`COc1ccc(NC(=O)C2=C(C)NC(=O)NC2c2ccc(C)cc2)c(OC)c1` (stereo not drawn) showed an IC50 (MCF7) of 33.5 µM and an IC50 at 3 days [1] of 60 µM.
In the case of `COc1ccc(NC(=O)C2=C(C)NC(=S)NC2c2ccccc2O)c(OC)c1` (stereo not drawn), the IC50 (MCF7) is reported as 32.1 µM and the IC50 at 3 days [1] is reported as 60.4 µM.
In the case of `COc1ccc(NC(=O)C2=C(C)NC(=O)NC2c2ccc(Cl)cc2Cl)c(OC)c1` (stereo not drawn), the IC50 (MCF7) is reported as 32.4 µM and the IC50 at 3 days [1] is reported as 63.5 µM.
Work on `COc1ccc(NC(=O)C2=C(C)NC(=O)NC2c2cccc(Br)c2)c(OC)c1` (stereo not drawn) yielded an IC50 (MCF7) of 31.2 µM and an IC50 at 3 days [1] of 48.1 µM.
`COc1ccc(NC(=O)C2=C(C)NC(=S)NC2c2ccc(N(C)C)cc2)c(OC)c1` (stereo not drawn) gave an IC50 (MCF7) of 25.1 µM and an IC50 at 3 days [1] of 53.1 µM.
`COc1ccc(NC(=O)C2=C(C)NC(=S)NC2c2ccc(O)cc2)c(OC)c1` (stereo not drawn) gave an IC50 (MCF7) of 28.6 µM and an IC50 at 3 days [1] of 40 µM.
For `COc1ccc(NC(=O)C2=C(C)NC(=O)NC2c2ccc(Cl)cc2)c(OC)c1` (stereo not drawn), the IC50 (MCF7) was 32.4 µM and the IC50 at 3 days [1] was 62.7 µM.
`COc1ccc(NC(=O)C2=C(C)NC(=O)NC2c2c[nH]c3ccccc23)c(OC)c1` (stereo not drawn) gave an IC50 (MCF7) of 20.2 µM and an IC50 at 3 days [1] of 42.6 µM.
`COc1ccc(NC(=O)C2=C(C)NC(=O)NC2c2ccccc2[N+](=O)[O-])c(OC)c1` (stereo not drawn) showed an IC50 (MCF7) of 40.1 µM and an IC50 at 3 days [1] of 55.3 µM.
Compound `CS(=O)(=O)CCNCc1ccc(-c2ccc3ncnc(Nc4ccc(OCc5cccc(F)c5)c(Cl)c4)c3c2)o1` [LAPATINIB] has an IC50 (MCF7) of 3.38 µM, an IC50 at 3 days [1] of 19.3 µM and an inhibition at 0.1 µM [2] of 5.88%. For the same compound, the inhibition at 0.1 µM [3] was 93%, the inhibition at 0.1 µM [4] was 7.15% and the inhibition at 0.1 µM [5] was 94.3%.
Work on `COc1ccc(NC(=O)C2=C(C)NC(=S)NC2c2ccc(Br)cc2)c(OC)c1` (stereo not drawn) yielded an IC50 (MCF7) of 37.5 µM and an IC50 at 3 days [1] of 61.2 µM.
Compound `COc1ccc(NC(=O)C2=C(C)NC(=S)NC2c2c[nH]c3ccccc23)c(OC)c1` (stereo not drawn) has an IC50 (MCF7) of 29.4 µM and an IC50 at 3 days [1] of 50.3 µM.
In the case of `COc1ccc(NC(=O)C2=C(C)NC(=S)NC2c2ccc(OC)c(OC)c2)c(OC)c1` (stereo not drawn), the IC50 (MCF7) is reported as 17.3 µM and the IC50 at 3 days [1] is reported as 43.9 µM.
`COc1ccc(NC(=O)C2=C(C)NC(=S)NC2c2ccccc2)c(OC)c1` (stereo not drawn) gave an IC50 (MCF7) of 45.3 µM and an IC50 at 3 days [1] of 53.4 µM.
Compound `COc1ccc(NC(=O)C2=C(C)NC(=S)NC2c2ccc(O)c(OC)c2)c(OC)c1` (stereo not drawn) has an IC50 (MCF7) of 20.3 µM and an IC50 at 3 days [1] of 42.5 µM.
With `COc1ccc(NC(=O)C2=C(C)NC(=S)NC2c2ccc(OCc3ccccc3)c(OC)c2)c(OC)c1` (stereo not drawn) the inhibition at 1 µM [6] was 7.42%, the inhibition at 1 µM [7] was 4.17% and the IC50 (MCF7) was 17 µM. The IC50 at 3 days [1] was 52.9 µM, the inhibition at 0.1 µM [2] was 20.1% and the inhibition at 0.025 µM [8] was 32.1%. It also gave an inhibition at 0.05 µM [9] of 57.8%, an inhibition at 0.5 µM [10] of 22.3% and an IC50 [11] of 0.0768 µM. For the same compound, the inhibition at 0.05 µM [12] was 38.4%, the inhibition at 0.025 µM [13] was 14.9% and the inhibition at 0.1 µM [3] was 72.1%. It also gave an inhibition at 0.025 µM [14] of 68.7%, an inhibition at 0.05 µM [15] of 62.4% and an inhibition at 0.5 µM [16] of 83.2%. The inhibition at 1 µM [17] was 96%, the inhibition at 0.1 µM [4] was 28.3% and the inhibition at 0.5 µM [18] was 78.4%. For the same compound, the inhibition at 0.5 µM [19] was 17.4%, the inhibition at 0.025 µM [20] was 85.5% and the inhibition at 1 µM [21] was 92.7%. For the same compound, the inhibition at 0.1 µM [5] was 80.5% and the inhibition at 0.05 µM [22] was 42.6%.
With `COc1ccc(NC(=O)C2=C(C)NC(=O)NC2c2ccc(Br)cc2)c(OC)c1` (stereo not drawn) the IC50 (MCF7) was 31.6 µM and the IC50 at 3 days [1] was 49.4 µM.
`CCOc1cc(C2NC(=O)NC(C)=C2C(=O)Nc2ccc(OC)cc2OC)ccc1O` (stereo not drawn) showed an IC50 (MCF7) of 21 µM and an IC50 at 3 days [1] of 58.2 µM.
Compound `COc1ccc(NC(=O)C2=C(C)NC(=S)NC2c2ccc(Cl)cc2)c(OC)c1` (stereo not drawn) has an IC50 (MCF7) of 38.7 µM and an IC50 at 3 days [1] of 48.3 µM.
